The source of these data is patent US20260028336A1 (Arcus Biosciences, Inc., priority 2022, published 2026).

The IC50 is the concentration needed to halve the response being measured. Read a high IC50 as weaker potency in that assay. Broadly, the EC50 is the midpoint of the concentration-response curve.

One assay deals with T1, Cbl-b (Homo sapiens, UniProt Q13191).
T1 construct: biotin (biotinylated)
Description: Cbl-b probe displacement HTRF binding assay. Particulars: 0.4 nM biotinylated Cbl-b, 150 nM BODIPY probe. An outline of the steps: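 Biotinylated Cbl-b was preincubated with compound for 60 min at room temperature in HEPES/NaCl/Triton/TCEP/BSA buffer. BODIPY probe was added for 15 min, followed by streptavidin-terbium, and the HTRF signal was read. Displacement was normalised to DMSO and no-protein controls, and affinity was obtained from a four-parameter dose-response fit.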

In a further assay the test system is Jurkat cells. Put plainly: IL-2 secretion assay in CD3/CD28-activated Jurkat cells (AlphaLISA). It is filed as cell-based. Particulars: Homo sapiens, CD3/CD28 T Cell Activator, 24 h, IL-2 AlphaLISA. An outline of the steps:
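Jurkat cells (50,000/well) were preincubated 1 h at 37° C with compound in a 16-point 1:2 series spanning 10 μM to 300 pM final. Cells were then activated with CD3/CD28 T cell activator, and secreted IL-2 was read by AlphaLISA. EC50 came from 4-parameter logistic fits.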
(In general: Alpha assays give light when donor and acceptor beads are brought close together.)

T1 sequence (Q13191 whole entry, species assumed): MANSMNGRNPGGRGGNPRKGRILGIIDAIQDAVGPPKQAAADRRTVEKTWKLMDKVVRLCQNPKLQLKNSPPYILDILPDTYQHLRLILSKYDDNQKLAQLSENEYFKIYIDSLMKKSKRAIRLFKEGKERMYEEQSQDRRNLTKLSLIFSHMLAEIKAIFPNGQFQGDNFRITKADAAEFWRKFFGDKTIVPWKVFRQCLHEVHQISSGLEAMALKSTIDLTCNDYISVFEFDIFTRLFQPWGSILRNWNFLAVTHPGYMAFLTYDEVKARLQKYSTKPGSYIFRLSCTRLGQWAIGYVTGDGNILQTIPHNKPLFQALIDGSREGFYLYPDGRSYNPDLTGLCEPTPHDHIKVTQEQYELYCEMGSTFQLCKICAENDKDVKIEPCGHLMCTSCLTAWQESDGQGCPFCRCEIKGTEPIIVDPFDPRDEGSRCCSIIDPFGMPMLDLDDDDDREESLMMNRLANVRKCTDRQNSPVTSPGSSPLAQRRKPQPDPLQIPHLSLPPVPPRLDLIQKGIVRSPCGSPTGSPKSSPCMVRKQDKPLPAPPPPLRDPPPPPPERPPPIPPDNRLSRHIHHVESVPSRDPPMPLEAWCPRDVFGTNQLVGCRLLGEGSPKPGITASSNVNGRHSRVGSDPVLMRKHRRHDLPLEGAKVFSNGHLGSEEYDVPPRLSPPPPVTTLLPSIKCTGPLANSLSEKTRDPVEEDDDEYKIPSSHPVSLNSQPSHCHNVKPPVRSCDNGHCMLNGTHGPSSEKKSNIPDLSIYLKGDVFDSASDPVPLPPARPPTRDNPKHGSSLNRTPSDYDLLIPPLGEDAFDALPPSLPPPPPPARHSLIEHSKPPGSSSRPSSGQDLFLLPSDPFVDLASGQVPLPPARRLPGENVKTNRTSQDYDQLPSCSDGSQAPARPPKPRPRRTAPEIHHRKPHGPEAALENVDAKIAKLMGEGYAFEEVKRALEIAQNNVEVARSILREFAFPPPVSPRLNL

The compound `C[C@H]1CCCN(Cc2cc3c(C4CC4)cn(-c4cccc([C@]5(c6nncn6C(F)F)C[C@H](OC(F)F)C5)c4)c(=O)c3[nH]2)C1` [Example 151, 2—{[(S)-3-methyl-1-piperidyl]methyl}-4-cyclopropyl-6-(m-{(1r,3S)-3-difluoromethoxy-1-[4-(difluoromethyl)-4H-1,2,4-triazol-3-yl]cyclobutyl}phenyl)-1,6-dihydro-1,6-diaza-7-indenone] gave a half-inhibitory concentration (IC50) on Cbl-b of under 100 nM. For the same compound, in the assay with Jurkat cells, the half-maximal effective concentration (EC50) was under 100 nM.
For `O=c1c2[nH]c(CNCC3(O)CCC3)cc2c(C2CC2)cn1-c1cccc([C@]2(c3nncn3C(F)F)C[C@H](OC(F)F)C2)c1` [Example 152, 4-cyclopropyl-2-({[(1-hydroxycyclobutyl)methyl]amino}methyl)-6-(m-{(1r,3r)-3-difluoromethoxy-1-[4-(difluoromethyl)-4H-1,2,4-triazol-3-yl]cyclobutyl}phenyl)-1,6-dihydro-1,6-diaza-7-indenone], the IC50 on Cbl-b is under 100 nM. This compound also registered an EC50 with Jurkat cells of 1000 to 5000 nM.
The like results for `C[C@H]1CCCN(Cc2cc3c(C4CC4)cn(-c4cccc([C@H](c5nncn5C(F)F)C5CCC5)c4)c(=O)c3[nH]2)C1` [Example 154, 6-(m-{(R)-cyclobutyl[4-(difluoromethyl)-4H-1,2,4-triazol-3-yl]methyl}phenyl)-2-{[(S)-3-methyl-1-piperidyl]methyl}-4-cyclopropyl-1,6-dihydro-1,6-diaza-7-indenone] were, in that order, under 100 nM and 100 to 1000 nM.
Taken in the same sequence, the figures for `C[C@H]1CCCN(Cc2cc3c(C4CC4)cn(-c4cccc(C(O)(c5nncn5C)C5CCC5)c4)c(=O)c3[nH]2)C1` (stereo partly drawn) [Example 155, 6-[3-[cyclobutyl-hydroxy-(4-methyl-1,2,4-triazol-3-yl)methyl]phenyl]-4-cyclopropyl-2-[[(3S)-3-methylpiperidin-1-yl]methyl]-1H-pyrrolo[2,3-c]pyridin-7-one] were under 100 nM and 100 to 1000 nM.
In the case of `C[C@H]1CCCN(Cc2cc3c(C4CC4)cn(-c4cccc(C(O)(c5nncn5C)C(F)(F)F)c4)c(=O)c3[nH]2)C1` (some centres unmarked) [Example 156], on Cbl-b, the concentration for half-maximal inhibition (IC50) is under 100 nM. Also, in the assay on Jurkat cells, the EC50 lay in the range of 100 to 1000 nM.
`COC(c1cccc(-n2cc(C3CC3)c3cc(CN4CCC[C@H](C)C4)[nH]c3c2=O)c1)c1nncn1C` (some centres unmarked) [Example 158] yielded an IC50 at Cbl-b of under 100 nM. This compound also showed a 50% effective concentration (EC50) in the assay with Jurkat cells of 100 to 1000 nM.
Taken in the same sequence, the figures for `COC(C)(c1cccc(-n2cc(C3CC3)c3cc(CN4CCC[C@H](C)C4)[nH]c3c2=O)c1)c1nncn1C` (stereo partly drawn) [Example 159, 4-cyclopropyl-6-[3-[1-methoxy-1-(4-methyl-1,2,4-triazol-3-yl)ethyl]phenyl]-2-[[(3S)-3-methylpiperidin-1-yl]methyl]-1H-pyrrolo[2,3-c]pyridin-7-one] were 100 to 1000 nM and 100 to 1000 nM.
In turn, `C[C@H]1CCCN(Cc2cc3c(C4CC4)cn(-c4cc(C(C)(C)c5nncn5C)ccn4)c(=O)c3[nH]2)C1` [Example 160, 2—{[(S)-3-methyl-1-piperidyl]methyl}-4-cyclopropyl-6-{4-[1-methyl-1-(4-methyl-4H-1,2,4-triazol-3-yl)ethyl]-2-pyridyl}-1,6-dihydro-1,6-diaza-7-indenone] gave a 50% inhibitory concentration (IC50) on Cbl-b of 100 to 1000 nM. This compound also had an EC50 in the assay with Jurkat cells of 100 to 1000 nM.
`C[C@H]1CCCN(Cc2cc3c(C4CC4)cn(-c4cccc(C(F)(F)c5nncn5C)c4)c(=O)c3[nH]2)C1` [Example 161, 4-cyclopropyl-6-[3-[difluoro-(4-methyl-1,2,4-triazol-3-yl)methyl]phenyl]-2-[[(3S)-3-methylpiperidin-1-yl]methyl]-1H-pyrrolo[2,3-c]pyridin-7-one] yielded an IC50 on Cbl-b of under 100 nM. This compound also gave an EC50 in the assay on Jurkat cells of 100 to 1000 nM.
Taken in the same sequence, the figures for `C[C@H]1CCCN(Cc2cc3c(C4CC4)cn(-c4cccc(C(F)c5nncn5C)c4)c(=O)c3[nH]2)C1` (stereo partly drawn) [Example 162, 4-cyclopropyl-6-[3-[fluoro-(4-methyl-1,2,4-triazol-3-yl)methyl]phenyl]-2-[[(3S)-3-methylpiperidin-1-yl]methyl]-1H-pyrrolo[2,3-c]pyridin-7-one] were 100 to 1000 nM and 100 to 1000 nM.
Compound `C[C@H]1CCCN(Cc2cc3c(C4CC4)cn(-c4cccc(C(C)(F)c5nncn5C)c4)c(=O)c3[nH]2)C1` (stereo partly drawn) [Example 163, 4-cyclopropyl-6-[3-[1-fluoro-1-(4-methyl-1,2,4-triazol-3-yl)ethyl]phenyl]-2-[[(3S)-3-methylpiperidin-1-yl]methyl]-1H-pyrrolo[2,3-c]pyridin-7-one] displayed a half-maximal inhibitory concentration (IC50) on Cbl-b of under 100 nM. For the same compound, the EC50 with Jurkat cells was under 100 nM.
On to `C[C@H]1CCCN(Cc2cc3c(C4CC4)cn(-c4cccc(C(C)(F)c5nccn5C)c4)c(=O)c3[nH]2)C1` (some centres unmarked) [Example 164], for which the IC50 on Cbl-b is 1000 to 5000 nM. The compound further had a half-maximal effective concentration (EC50) with Jurkat cells of 1000 to 5000 nM.
In turn, `CC(c1cccc(-n2cc(C3CC3)c3cc(CN4CCC[C@H](C)C4)[nH]c3c2=O)c1)c1nncn1C` (stereo partly drawn) [Example 165, 4-cyclopropyl-2-[[(3S)-3-methylpiperidin-1-yl]methyl]-6-[3-[1-(4-methyl-1,2,4-triazol-3-yl)ethyl]phenyl]-1H-pyrrolo[2,3-c]pyridin-7-one] had an IC50 at Cbl-b of under 100 nM. Also, the EC50 with Jurkat cells is under 100 nM.
